Where two headings read alike, the source gives them in different places.
Key:
[1] = tested on: Haemophilus parainfluenzae; assay: Growth of nitrate reducing species in optical density assay; format: cell-based; conditions: for Effect on growth of Haemophilus parainfluenzae (in words): 1.5% KNO3 and 0.75% L-arginine alone or in combination, 26 h; for Optical Density (610 nm): pure culture, 0.75% L-arginine, 0.75% KNO3 (so in the source), or 1.5% KNO3 + 0.75% L-arginine by wt. of solution added, measured every two hours for 26 h, control 1.02
Method: The impact of 1.5% KNO3 and 0.75% L-arginine alone or in combination on the growth of one known nitrate reducing species, Haemophilus parainfluenzae, is studied. Pure cultures of each species are grown in the presence of the compounds. Note, the wt. % of the potassium nitrate and L-arginine is relative to the total weight of the solution added to the culture. The growth is monitored by measuring the optical density at 610 nm every two hours for 26 h.

[2] = tested on: salivary biofilms; assay: In vitro oral biofilm model, simple solutions: total NO3/NO2 in supernatant (colorimetric kit); format: cell-based, human; conditions: for NO3/NO2 (nmole per sample): biofilm supernatant, 2 min treatments twice daily, 5 days, 3% KNO3 and/or 1.5% L-arginine, all with 1.7% TSPP, untreated 5.93; for NO3/NO2 output (in words): repeated treatment with simple solutions
Method: (§1) An in vitro model for oral biofilms is treated with either 3% KNO3 or 1.5% L-arginine alone or in combination as simple solutions. Whole human saliva was used to inoculate sterile hydroxyapatite discs held in a vertical position using a specially designed steel lid as indicated in Kumar et al. (2019). Biofilms in Human Diseases: Treatment and Control Nature, the contents of which are incorporated herein by reference in their entirety.
(§2) Following 6 h of inoculum, biofilms are treated for 2 min with simple solutions, rinsed and returned to fresh, filter-sterilized saliva. Biofilms were treated 2 times per day, with approximately 6 h between treatments for the subsequent 3 days. On the fifth day, biofilms are treated one time in the morning and then harvested approximately 3 h after treatment by sonication. Bacterial pellets are frozen and later subjected to DNA extraction and sequencing of the V3-V4 region of the 16 s ribosomal RNA subunit in order to identify the relative abundance of bacteria present in each sample to the genus level. The final supernatants were also retained, filter-sterilized and tested for total nitrate/nitrite concentrations to determine if any changes in nitrate production could be detected from the biofilm communities.
(§3) For these studies, all solutions were made fresh in dH2O and used within 1 h of being made. Solutions were prepared by weight to contain each of the following: 3% KNO3, 1.5% L-arginine, both by weight of the solution, or no active. Additionally, all solutions contained 1.7% TSPP for additional stabilization. Solution pH values were not adjusted before treatment.
At the end of the experiment, filter sterilized samples were tested for total NO3/NO2 using a colorimetric nitrate/nitrite assay kit (Sigma). Due to low sample volumes, samples were only tested for total NO3/NO2.

[3] = tested on: Haemophilus parainfluenzae; assay: In vitro oral biofilm model, simple solutions: 16S V3-V4 sequencing; format: cell-based; conditions: simple solutions: 3% KNO3 and/or 1.5% L-arginine; untreated (PBS) 0.14
Method: as §1, §2, §3
(§4) The composition of the microbiome of each sample is studied to assess the bacterial community shifts induced by treatment with: potassium nitrate alone, L-arginine alone, or potassium nitrate and L-arginine in combination.

[4] = tested on: Neisseria flavescens subflava; assay: as above; format: cell-based; conditions: simple solutions: 3% KNO3 and/or 1.5% L-arginine; untreated (PBS) 1.23
Method: as §1, §2, §3, §4

[5] = tested on: Prevotella melaninogenica; assay: as above; format: cell-based; conditions: simple solutions: 3% KNO3 and/or 1.5% L-arginine; untreated (PBS) 0.31
Method: as §1, §2, §3, §4

[6] = tested on: Rothia dentocariosa; assay: as above; format: cell-based
Method: as §1, §2, §3, §4

[7] = tested on: Veillonella parvula; assay: as above; format: cell-based; conditions: simple solutions: 3% KNO3 and/or 1.5% L-arginine; untreated (PBS) 4.59
Method: as §1, §2, §3, §4

[8] = tested on: Oral biofilms; assay: Measurement of nitrite in oral biofilms after potassium nitrate challenge; format: cell-based, human; conditions: treated twice a day for five days with simple solutions; total nitrite after five-minute challenge with 5% potassium nitrate; untreated 0.11
Method: Oral biofilms are grown on hydroxyapatite discs in saliva as discussed in the process detailed in Example 3. Over the course of five days, the biofilms receive treatment twice a day. Specifically, the biofilms receive treatment with samples containing simple solutions of water and 3% (by wt.) potassium nitrate and 5% (by wt.) arginine or a simple solution of water and 3% (by wt.) potassium nitrate alone. Following treatment, there is measurement of total nitrite (mg/L) in the biofilms following a five-minute challenge with 5% potassium nitrate.

SMILES: N=C(N)NCCC[C@H](N)C(=O)O [L-arginine]
- Effect on growth of Haemophilus parainfluenzae (in words) [1]: slightly reduce growth
- Optical Density (610 nm) [1]: 0.65
- NO3/NO2 (nmole per sample) [2]: 6.01 nmole per sample
- NO3/NO2 output (in words) [2]: small increases
- Relative abundance of Haemophilus parainfluenzae [3]: 0.83 relative units of abundance
- Relative abundance of Neisseria flavescens subflava [4]: 0.54 relative units of abundance
- Relative abundance of Prevotella melaninogenica [5]: 0.07 relative units of abundance
- Relative abundance of Rothia dentocariosa ([6]; simple solutions: 3% KNO3 and/or 1.5% L-arginine, untreated (PBS) 0.02): 0.02 relative units of abundance
- Relative abundance of Veillonella parvula [7]: 3.28 relative units of abundance

SMILES: O=[N+]([O-])[O-].[K+] [KNO3, potassium nitrate]
- Effect on growth of Haemophilus parainfluenzae (in words) [1]: no effect on the growth
- Optical Density (610 nm) [1]: 0.99
- NO3/NO2 (nmole per sample) [2]: 6.00 nmole per sample
- NO3/NO2 output (in words) [2]: small increases
- Relative abundance of Haemophilus parainfluenzae [3]: 0.04 relative units of abundance
- Relative abundance of Neisseria flavescens subflava [4]: 0.05 relative units of abundance
- Relative abundance of Prevotella melaninogenica [5]: 0.67 relative units of abundance
- Relative abundance of Rothia dentocariosa [6]: 0 relative units of abundance
- Relative abundance of Veillonella parvula [7]: 0.78 relative units of abundance
- Biofilm Nitrite Measurement [8]: 0.8 mg/L

From patent US20220395443A1, “Oral Care Compositions and Methods” (Colgate-Palmolive Company, priority 2021, published 2022)
